Assay results reported in patent US20170296490A1, “USE OF LIGNIN-DERIVED ALDEHYDES AS ANTIFUNGAL AGENTS” (Wisconsin Alumni Research Foundation, priority 2016, published 2017).

Assays:
Candida albicans = test: Growth inhibition of C. albicans (FIG. 6); type: cell-based; details: for inhibition of Candida albicans (summary statement): no concentration stated; for inhibitory activity against C. albicans: at a concentration of 1000 μg/mL
Source text: FIG. 6 is a graph depicting dose-dependent inhibition of the yeast C. albicans by sinapyl aldehyde ([…]), coniferyl aldehyde (∘), and p-hydroxycoumaryl aldehyde (▾).
FIG. 6 depicts dose-dependent inhibition of C. albicans by sinapyl aldehyde ([…]), coniferyl aldehyde (∘), and p-hydroxycoumaryl aldehyde (▾). Here, the inhibition was not as pronounced as against S. cerevisiae.

Alternaria alternata = test: Colony growth inhibition of Alternaria alternata (FIGS. 2, 3); type: cell-based; details: for colony size: end of six days; for inhibition of Alternaria alternata (summary statement): no concentration stated
Method: FIG. 2 is a graph depicting dose-dependent inhibition of Alternaria alternata by sinapyl aldehyde. Control=[…]. 250 μg/mL=∘. 500 μg/mL=▾. 1,000 μg/mL=Δ.
FIG. 3 is a graph depicting dose-dependent inhibition of Alternaria alternata by coniferyl aldehyde. Control=[…]. 250 μg/mL=∘. 500 μg/mL=▾. 1,000 μg/mL=Δ.
Similar to FIG. 1, FIG. 2 is a graph depicting dose-dependent inhibition of Alternaria alternata by sinapyl aldehyde. Time in days is on the X-axis; colony size in cm is on the Y-axis. […] A. alternata has also been implicated as a causative agent of asthma in humans. Salo et al. (October 2006) “Exposure to Alternaria alternata in US homes is associated with asthma symptoms” J Allergy Clin Immunol.; 118(4): 892-898.
(Control=[…]. 250 μg/mL=∘. 500 μg/mL=▾. 1,000 μg/mL=Δ.)

Saccharomyces cerevisiae = test: Growth inhibition of the yeast S. cerevisiae (FIG. 5); type: cell-based; details: for inhibition of S. cerevisiae: at 500 μg/mL; for inhibition of Saccharomyces cerevisiae (summary statement): no concentration stated
Source text: FIG. 5 is a graph depicting dose-dependent inhibition of the yeast S. cerevisiae by sinapyl aldehyde ([…]), coniferyl aldehyde (∘), and p-hydroxycoumaryl aldehyde (▾).
FIG. 5 depicts dose-dependent inhibition of S. cerevisiae by sinapyl aldehyde ([…]), coniferyl aldehyde (∘), and p-hydroxycoumaryl aldehyde (▾).

Alternaria solani = test: Colony growth inhibition of Alternaria solani (FIG. 1); type: cell-based; details: for growth of the colony: A. solani, 250, 500 and 1,000 μg/mL vs untreated control (DMSO), dose-dependent; for inhibition of Alternaria solani (summary statement): no concentration stated
Method: FIG. 1 is a series of photographs illustrating dose-dependent inhibition of Alternaria solani by sinapaldehyde (top row) and coniferyl aldehyde (bottom row) at concentrations of 250 μg/mL, 500 μg/mL, and 1,000 μg/mL.
Without aggressive early control of the pathogen, early blight causes significant yield reductions.

S. sclerotiorum = test: Colony growth inhibition of S. sclerotiorum (FIG. 4); type: cell-based, Sclerotinia sclerotiorum; details: for growth of the colony: S. sclerotiorum, 250, 500 and 1,000 μg/mL vs untreated control (DMSO), dose-dependent; for inhibition of Sclerotinia sclerotiorium (summary statement): no concentration stated
Method: FIG. 4 is a series of photographs illustrating dose-dependent inhibition of Scelerotinia sclerotiorium by sinapyl aldehyde (top row) and coniferyl aldehyde (bottom row) at concentrations of 250 μg/mL, 500 μg/mL, and 1,000 μg/mL.
FIG. 4 is a series of photographs analogous to FIG. 1, but showing the ability of sinapldehyde and coniferyl aldehyde to attenuate the grown of S. sclerotiorum. […] White mold is particularly significant economically because it affects a wide range of hosts. It is also capable of infecting plants at any stage of growth makes. S. sclerotiorum, can survive on infected tissues, in the soil, and on living plants. It affects young seedlings, mature plants, and fruit in the field or in storage. […] It can also propagate throughout a harvested crop if conditions are not monitored carefully. It infects many extensively planted crops, including soybeans, green beans, sunflowers, canola, and peanuts.

SMILES: COc1cc(/C=C/C=O)cc(OC)c1O [sinapyl aldehyde]
- inhibition of Candida albicans (summary statement) (Candida albicans): show inhibition
- colony size (Alternaria alternata; A. alternata, 250 μg/mL): smaller than the untreated colony
- colony size (Alternaria alternata; A. alternata, 500 μg/mL): smaller still
- colony size (Alternaria alternata; A. alternata, 1,000 μg/mL): the smallest of those tested
- inhibition of Alternaria alternata (summary statement) (Alternaria alternata): show inhibition
- inhibition of S. cerevisiae (Saccharomyces cerevisiae): very significant inhibition
- inhibition of Saccharomyces cerevisiae (summary statement) (Saccharomyces cerevisiae): show inhibition
- growth of the colony (Alternaria solani): very significantly inhibited
- inhibition of Alternaria solani (summary statement) (Alternaria solani): show inhibition
- growth of the colony (S. sclerotiorum): very significantly inhibited
- inhibition of Sclerotinia sclerotiorium (summary statement) (S. sclerotiorum): show inhibition

SMILES: O=C/C=C/c1ccc(O)cc1 [p-hydroxycoumaryl aldehyde]
- inhibitory activity against C. albicans (Candida albicans): very signification inhibitory activity
- inhibition of Candida albicans (summary statement) (Candida albicans): show inhibition
- inhibition of Alternaria alternata (summary statement) (Alternaria alternata): show inhibition
- inhibition of S. cerevisiae (Saccharomyces cerevisiae): very significant inhibition
- inhibition of Saccharomyces cerevisiae (summary statement) (Saccharomyces cerevisiae): show inhibition
- inhibition of Alternaria solani (summary statement) (Alternaria solani): show inhibition
- inhibition of Sclerotinia sclerotiorium (summary statement) (S. sclerotiorum): show inhibition

SMILES: COc1cc(/C=C/C=O)ccc1O [coniferyl aldehyde]
- inhibitory activity against C. albicans (Candida albicans): very signification inhibitory activity
- inhibition of Candida albicans (summary statement) (Candida albicans): show inhibition
- growth rates and colony size (Alternaria alternata; A. alternata, 250, 500 and 1,000 μg/mL treatment groups, six days): progressively attenuated growth rates and smaller colony size
- inhibition of Alternaria alternata (summary statement) (Alternaria alternata): show inhibition
- inhibition of S. cerevisiae (Saccharomyces cerevisiae): very significant inhibition
- inhibition of Saccharomyces cerevisiae (summary statement) (Saccharomyces cerevisiae): show inhibition
- growth of the colony (Alternaria solani): very significantly inhibited
- inhibition of Alternaria solani (summary statement) (Alternaria solani): show inhibition
- growth of the colony (S. sclerotiorum): very significantly inhibited
- inhibition of Sclerotinia sclerotiorium (summary statement) (S. sclerotiorum): show inhibition
